Consider 50 molecules from US10815222B2, “Compounds for use in the treatment of kinetoplastid infection” (C.N.C.C.S. S.c.a.r.l. COLLEZIONE NAZIONALE DEI COMPOSTI …, priority 2016, dated 2020).

Each structure is given as a SMILES string.

The test system of the experiment is Bloodstream form of Trypanosoma brucei, strain Lister 427. In words: Trypanosoma brucei growth inhibition assay (CellTiter-Glo, 24 h). Format: cell-based. The settings on record: Trypanosoma brucei; T. Brucei Growth Inibition Assay, class symbols; read-out: T. Brucei GI EC50. Here is the method: Bloodstream form of Trypanosoma brucei, strain Lister 427 (provided by Prof. Miguel Navarro, Instituto de Parasitologia y Biomedicina “Lopez-Neyra” Avda. Conocimiento S/N Parque Tecnologico Ciencias de la Salud—Spain; ref. Navarro M. and Cross G. A. M. Molecular and Cellular Biology, 1996, Vol. 16, No. 7, pp. 3615-3625) were grown in IMDM Iscove's Modified Dulbecco's Medium (SIGMA #17633) supplemented with: 3.024 g/l sodium bicarbonate, hypoxanthine 1 mM, thymidine 0.16 mM, bathocuprione sulfonic acid 0.05 mM, cysteine 1.5 mM, ß-mercaptoethanol […] and 10% foetal bovine serum (heat-inactivated at 56° C. for 30 min). Parasites were grown at 37° C. in flasks with vented caps in a 5% CO2 incubator to a maximum cell density of about 2×10^6/ml and diluted every two-three days.
The compounds of the invention were dissolved in DMSO and transferred to assay plates by acoustic droplet ejection (ATS-100, EDC Biosystems, USA) in order to obtain an appropriate concentration and to keep the concentration of DMSO below or equal to 0.25% in the final assay volume of 30 μL. 1500 parasites resuspended in 30 μL of culture medium were then transferred to each well of a 384-well plate.
After an incubation period of 24 hours at 37° C., each well is added 15 μl of CellTiter-Glo® Reagent (Promega) and incubated at room temperature. 5-10 min post incubation, the plate is read using a luminometer (ViewLux®). A known inhibitor of the growth of T. brucei was used as the reference positive control.
Background: Cellular ATP, detected with luciferase, serves as a proxy for viable cell number.
In general, EC50 refers to the concentration needed to bring the measured effect to its halfway point. For `COc1nc2ccccc2cc1-c1cnc(C2CN(CC3CCOC3)CCN2C(=O)Cn2c(=O)ncc3ccccc32)[nH]1` (centres unmarked), the EC50 lay in the range of 1010 to 5000 nM.

Consider `COc1nc2ccccc2cc1-c1cnc(C2CN(CC3CCOC3)CCN2C(=O)Cn2ccc3cc(C#N)ccc32)[nH]1` (centres unmarked), for which the EC50 lay within 510 to 1000 nM. The figure for `COc1nc2ccccc2cc1-c1cnc(C2CN(CC3CCOC3)CCN2C(=O)Cn2ccnc2-c2ccccc2)[nH]1` (centres unmarked) is 1010 to 5000 nM.

With `COc1nc2ccccc2cc1-c1cnc(C2CN(CC3CCOC3)CCN2C(=O)Cc2ccc(-c3nccnc3C)cc2)[nH]1` (centres unmarked), the EC50 is 1010 to 5000 nM. The figure for `COc1nc2ccccc2cc1-c1cnc(C2CNCCN2C(=O)Cn2c(C)nc3ccccc32)[nH]1` (centres unmarked) is 1010 to 5000 nM; for `COc1nc2ccccc2cc1-c1cnc(C2CN(CC3CCOC3)CCN2C(=O)Cc2c[nH]c3ccncc23)[nH]1` (centres unmarked) it is 1010 to 5000 nM. For `COc1nc2ccccc2cc1-c1cnc(C2CN(CC3CCOC3)CCN2C(=O)Cc2nc(-c3ccccc3)oc2C)[nH]1` (centres unmarked) the value was 1010 to 5000 nM. For `COc1nc2ccccc2cc1-c1cnc(C2CN(CC3CCOC3)CCN2C(=O)Cc2c(C)[nH]c3ccccc23)[nH]1` (centres unmarked) the value was 100 to 500 nM. Consider `Cc1[nH]c2ccc(F)cc2c1CC(=O)N1CCN(CC2CCOC2)CC1c1ncc(-c2ccc(-n3cccn3)cc2)[nH]1` (centres unmarked), for which the EC50 was in the range of 1010 to 5000 nM. For `COc1nc2ccccc2cc1-c1cnc(C2CS(=O)(=O)CCN2C(=O)Cn2c(C)nc3ccccc32)[nH]1` (centres unmarked), the EC50 lay within 1010 to 5000 nM. On to `COc1nc2ccccc2cc1-c1cnc(C2COCCN2C(=O)Cn2c(C)nc3ccccc32)[nH]1` (centres unmarked), for which the EC50 was in the range of 1010 to 5000 nM. For `COc1nc2ccccc2cc1-c1cnc(C2CN(C3CCS(=O)(=O)CC3)CCN2C(=O)Cc2c(C)[nH]c3ccc(F)cc23)[nH]1` (centres unmarked) the value was 100 to 500 nM; for `COc1nc2ccccc2cc1-c1cnc(C2CN(CC3CCCC3)CCN2C(=O)Cc2c(C)[nH]c3ccc(F)cc23)[nH]1` (centres unmarked), 100 to 500 nM. Take `COc1nc2ccccc2cc1-c1cnc(C2CN(CC3CC3)CCN2C(=O)Cc2c(C)[nH]c3ccc(F)cc23)[nH]1` (centres unmarked): the EC50 lay within 100 to 500 nM. As for `COc1nc2ccccc2cc1-c1cnc(C2CN(Cc3ccccc3)CCN2C(=O)Cc2c(C)[nH]c3ccc(F)cc23)[nH]1` (centres unmarked), the EC50 was 100 to 500 nM. Consider `COc1nc2ccccc2cc1-c1cnc(C2CN(C3CCC3)CCN2C(=O)Cc2c(C)[nH]c3ccc(F)cc23)[nH]1` (centres unmarked), for which the EC50 fell in the range of 100 to 500 nM.

Turning to `COc1nc2ccccc2cc1-c1cnc(C2CN(CC3CCOC3)CCN2C(=O)Cn2nnc3ccccc32)[nH]1` (centres unmarked), the EC50 fell in the range of 510 to 1000 nM. Regarding `COc1nc2ccccc2cc1-c1cnc(C2CN(CC3CCOC3)CCN2C(=O)Cn2nc(C)c3ccccc3c2=O)[nH]1` (centres unmarked), the EC50 fell in the range of 510 to 1000 nM.

As to `COc1nc2ccccc2cc1-c1cnc(C2CN(CC3CCOC3)CCN2C(=O)CN2C(=O)c3ccccc3C2=O)[nH]1` (centres unmarked), the EC50 was in the range of 510 to 1000 nM.

Regarding `COc1nc2ccccc2cc1-c1cnc(C2CS(=O)(=O)CCN2C(=O)Cn2nc(C)c3ccccc3c2=O)[nH]1` (centres unmarked), the EC50 fell in the range of 1010 to 5000 nM. For `COc1nc2ccccc2cc1-c1cnc(C2CN(CC3CCOC3)CCN2C(=O)Cn2c(C3CC3)nc3ccccc32)[nH]1` (centres unmarked), the EC50 lay within 100 to 500 nM. Take `COc1nc2ccccc2cc1-c1cnc(C2CN(CC3CCOC3)CCN2C(=O)Cn2nc3ccccc3n2)[nH]1` (centres unmarked): the EC50 is 1010 to 5000 nM.

With `COc1nc2ccccc2cc1-c1cnc(C2CN(CC3CCOC3)CCN2C(=O)Cn2c(C)nc3cc(F)ccc32)[nH]1` (centres unmarked), the EC50 was in the range of 100 to 500 nM.

On to `COc1nc2ccccc2cc1-c1cnc(C2CN(C3CCN(C)CC3)CCN2C(=O)Cc2c(C)[nH]c3ccc(F)cc23)[nH]1` (centres unmarked), for which the EC50 lay within 510 to 1000 nM.

For the molecule `COc1nc2ccccc2cc1-c1cnc(C2CN(Cc3cn(C)nn3)CCN2C(=O)Cc2c(C)[nH]c3ccc(F)cc23)[nH]1` (centres unmarked), the EC50 lay within 100 to 500 nM. For `COc1nc2ccccc2cc1-c1cnc(C2CN(Cc3cccnc3)CCN2C(=O)Cc2c(C)[nH]c3ccc(F)cc23)[nH]1` (centres unmarked) the value was 100 to 500 nM; for `COc1nc2ccccc2cc1-c1cnc(C2CN(Cc3cocn3)CCN2C(=O)Cc2c(C)[nH]c3ccc(F)cc23)[nH]1` (centres unmarked), 100 to 500 nM; for `COc1nc2ccccc2cc1-c1cnc(C2CN(C(=O)C3CCN(C)CC3)CCN2C(=O)Cc2c(C)[nH]c3ccc(F)cc23)[nH]1` (centres unmarked), 1010 to 5000 nM. As for `COc1nc2ccccc2cc1-c1cnc(C2COCCN2C(=O)Cc2c(C)[nH]c3ccc(F)cc23)[nH]1` (centres unmarked), the EC50 was 510 to 1000 nM. For `Cc1[nH]c2ccc(F)cc2c1CC(=O)N1CCS(=O)(=O)CC1c1ncc(-c2ccc3ccccc3c2)[nH]1` (centres unmarked) the value was 100 to 500 nM; for `COc1nc2ccccc2cc1-c1cnc(C2CN(C(=O)c3cnn(C(C)C)c3)CCN2C(=O)Cc2c(C)[nH]c3ccc(F)cc23)[nH]1` (centres unmarked), 1010 to 5000 nM; for `COc1ncc(CN2CCN(C(=O)Cc3c(C)[nH]c4ccc(F)cc34)C(c3ncc(-c4cc5ccccc5nc4OC)[nH]3)C2)cn1` (centres unmarked), 100 to 500 nM. For `COc1nc2ccccc2cc1-c1cnc(C2CN(Cc3ccoc3)CCN2C(=O)Cc2c(C)[nH]c3ccc(F)cc23)[nH]1` (centres unmarked) the value was 100 to 500 nM; for `COc1nc2ccccc2cc1-c1cnc(C2CN(CC(C)C)CCN2C(=O)Cc2c(C)[nH]c3ccc(F)cc23)[nH]1` (centres unmarked), 100 to 500 nM; for `COc1ccc2[nH]c(C)c(CC(=O)N3CCNCC3c3ncc(-c4cc5ccccc5nc4OC)[nH]3)c2c1` (centres unmarked), 510 to 1000 nM. Regarding `COc1nc2ccccc2cc1-c1cnc(C2CN(CC3CCOC3)CCN2C(=O)Cn2c(C)nc3cc(F)c(F)cc32)[nH]1` (centres unmarked), the EC50 lay in the range of 100 to 500 nM. In the case of `COc1nc2ccccc2cc1-c1cnc(C2CN(CC3CCOC3)CCN2C(=O)Cn2c(C)nc3ccc(F)cc32)[nH]1` (centres unmarked), the EC50 lay within 100 to 500 nM. As to `COc1nc2ccccc2cc1-c1cnc(C2CN(CC3CCOC3)CCN2C(=O)Cc2cnc3ccccn23)[nH]1` (centres unmarked), the EC50 was 1010 to 5000 nM. As for `COc1cccc(CCC(=O)N2CCN(CC3CCOC3)CC2c2ncc(-c3cc4ccccc4nc3OC)[nH]2)c1` (centres unmarked), the EC50 lay within 1010 to 5000 nM.

In the case of `COc1nc2ccccc2cc1-c1cnc(C2CN(Cc3cc[n+]([O-])cc3)CCN2C(=O)Cc2c(C)[nH]c3ccc(F)cc23)[nH]1` (centres unmarked), the EC50 lay in the range of 1010 to 5000 nM.

With `CCC(=O)CCCN1CCN(C(=O)Cc2ccccc2)C(c2ncc(-c3ccc4ccccc4c3)[nH]2)C1` (centres unmarked), the EC50 was 1010 to 5000 nM.

Take `COc1nc2ccccc2cc1-c1cnc(C2CN(CC3CCOC3)CCN2C(=O)c2c(-c3ccccc3)noc2C)[nH]1` (centres unmarked): the EC50 fell in the range of 1010 to 5000 nM.

With `COc1nc2ccccc2cc1-c1cnc(C2CN(CC3CCOC3)CCN2C(=O)c2ccnc3ccccc23)[nH]1` (centres unmarked), the concentration for a half-maximal effect (EC50) is 1010 to 5000 nM. Turning to `COc1nc2ccccc2cc1-c1cnc(C2CN(CC3CCOC3)CCN2C(=O)c2sc(-c3cnccn3)nc2C)[nH]1` (centres unmarked), the EC50 was 1010 to 5000 nM.

With `COc1nc2ccccc2cc1-c1cnc(C2CN(CC3CCOC3)CCN2C(=O)c2cnc3ccccc3c2)[nH]1` (centres unmarked), the EC50 was 1010 to 5000 nM.

As to `COc1nc2ccccc2cc1-c1cnc(C2CN(CC3CCOC3)CCN2C(=O)c2ccc3ncccc3c2)[nH]1` (centres unmarked), the half-maximal effective concentration (EC50) was 1010 to 5000 nM. The figure for `COc1nc2ccccc2cc1-c1cnc(C2CN(C(=O)OCc3ccccc3)CCN2C(=O)Cn2c(C)nc3ccccc32)[nH]1` (centres unmarked) is 1010 to 5000 nM; for `COc1nc2ccccc2cc1-c1cnc(C2CN(C(=O)OCc3ccccc3)CCN2C(=O)Cc2c(C)[nH]c3ccc(F)cc23)[nH]1` (centres unmarked) it is 1010 to 5000 nM. Consider `COc1nc2ccccc2cc1-c1cnc(C2CN(CC3CCOC3)CCN2C(=O)c2nccc3ccccc23)[nH]1` (centres unmarked), for which the EC50 is 1010 to 5000 nM.

Take `COc1ccc2[nH]c(C)c(CC(=O)N3CCN(C(=O)OC(C)(C)C)CC3c3ncc(-c4cc5ccccc5nc4OC)[nH]3)c2c1` (centres unmarked): the EC50 lay within 100 to 500 nM.
